Measured values published in patent US10919941B2, “Functional lipid constructs” (KODE BIOTECH LIMITED, priority 2007, dated 2021).
No end group written: not given here.

Experiments:
Assay type in all cases: cell-based, human
[1] = test system: sera reactive with modified RBCs; assay: Neutralisation of reactive sera with free peptide, retested against modified RBCs (BioVue); design: key: 0 or ‘−’ no agglutination; 0 or ‘−’ no agglutination; 1+ or 3=very weak agglutination; 1+ or 3=very weak agglutination; 2+ or 5=weak agglutination; 2+ or 5=weak agglutination; 3+ or 8=moderate strong agglutination; 3+ or 8=moderate strong agglutination; 4+ or 10/12=strong agglutination; 4+ or 10/12=strong agglutination; 4+ or 10/12=strong agglutination; conditions: 40 μl plasma + 10 μl neutraliser 1.0 mg/ml, 30 minutes 37° C.
Source text: Optionally, where F is a peptide, the method includes the preliminary step of: • Adding an amount of the peptide to the sample of the serum; where the amount of the peptide is sufficient to neutralize non-specific agglutination or confirm specificity of the reactive antibody.

[2] = test system: Miltenberger Antibody Positive Panel; assay: Reactivity of modified RBCs against the Miltenberger Antibody Positive Panel; design: key to score vs panel 15 TAP2 / score vs panel 4 T7202 / score vs panel 8 T5896 / score vs panel 2 T217 / score vs panel 3 T165 / score vs panel 14 TAP1 / score vs panel 10 Mia / score vs panel 11 Mur / score vs panel 12 Gam / score vs panel 6 T6025 / score vs panel 7 T8445 / score vs panel 9 MIII / score vs panel 13 BoxH / reactivity with Panel Serum #7 (T8445) / agglutination score, Panel Serum #7 (T8445): 0 or ‘−’ no agglutination; 0 or ‘−’ no agglutination; 1+ or 3=very weak agglutination; 1+ or 3=very weak agglutination; 2+ or 5=weak agglutination; 2+ or 5=weak agglutination; 3+ or 8=moderate strong agglutination; 3+ or 8=moderate strong agglutination; 4+ or 10/12=strong agglutination; 4+ or 10/12=strong agglutination; 4+ or 10/12=strong agglutination; conditions: for score vs panel 2 T217 / score vs panel 4 T7202 / score vs panel 7 T8445 / score vs panel 8 T5896 / score vs panel 15 TAP2 / score vs panel 3 T165 / score vs panel 6 T6025 / score vs panel 9 MIII / score vs panel 10 Mia / score vs panel 11 Mur / score vs panel 12 Gam: Table 9; for agglutination score, Panel Serum #7 (T8445): cells modified at 50 μg/ml, 2 hour 37° C., BioVue AHG cards; for reactivity with Panel Serum #7 (T8445): construct 50 μg/ml (2 hours, 37° C.)
Procedure: Red blood cells are modified by mixing 1 part by volume of washed packed red blood cells with 1 part by volume of peptide-lipid construct dispersed at a concentration of 10 to 1000 pg/ml in cell media (Celpresol™).
The suspensions are either: • 1. incubated for 2 hours at 37° C. before being washed and suspended in a cell medium for serological analysis at a concentration of 0.8 to 3% (Method 1); or • 2. incubated for 3 to 4 hours at room temperature (circa 25° C.) followed by 18 hours at 4° C. before being washed and suspended in a cell medium for serological analysis at a concentration of 0.8 to 3% (Method 2).
Serological reactions are graded or scored by either of two established systems (0 or ‘−’ no agglutination, 1+ or 3=very weak agglutination, 2+ or 5=weak agglutination, 3+ or 8=moderate strong agglutination, 4+ or 10/12=strong agglutination)
Serological platforms used are Tube (addition of reagents and reactants into plastic or glass serology tubes and after appropriate incubations, washing and centrifugation observing reactions macroscopically by eye and a 10× magnification eyepiece and scoring) and BioVue™ (addition of reactants into cassettes containing beads (including some reactants) and after appropriate incubations and centrifugation observing the reaction patterns trapped within the Gel matrix). BioVue is the serological column agglutination platform of Ortho-Clinical Diagnostics. Diamed is the serological column agglutination platform of Diamed AG.

[3] = test system: antibody negative serums; assay: False positive reactions of modified RBCs with antibody negative serums/plasma; design: key to Reaction score BioVue AHG, PAC samples 1-46, 49, 50, 52, 53 / Reaction score BioVue AHG, PAC sample 47 / Reaction score BioVue AHG, PAC sample 48 / Reaction score BioVue AHG, PAC sample 51 / agglutination score, T series serum 2 / agglutination score, T series serum 42 / agglutination score, T series serum 63 / agglutination score, T series serum 62 / agglutination score, T series serum 7 / agglutination score, T series serum 20 / agglutination score, T series serum 48 / agglutination score, T series serum 22 / agglutination score, T series serum 39 / agglutination score, T series serum 23 / agglutination score, T series serum 30 / agglutination score, T series serum 4 / agglutination score, T series serum 31 / agglutination score, T series serum 44 / agglutination score, T series serum 61 / agglutination score, T series serum 18 / agglutination score, T series serum 21 / agglutination score, T series serum 28 / agglutination score, T series serum 55 / agglutination score, false positive serum T18 / agglutination score, false positive serum T21 / agglutination score, false positive serum T28 / agglutination score, false positive serum T55 / agglutination score, false positive serum T78 / agglutination score, false positive serum T92: 0 or ‘−’ no agglutination; 0 or ‘−’ no agglutination; 1+ or 3=very weak agglutination; 1+ or 3=very weak agglutination; 2+ or 5=weak agglutination; 2+ or 5=weak agglutination; 3+ or 8=moderate strong agglutination; 3+ or 8=moderate strong agglutination; 4+ or 10/12=strong agglutination; 4+ or 10/12=strong agglutination; 4+ or 10/12=strong agglutination; conditions: larger series = 102; cells modified at 50 μg/ml, 2 hour 37° C.; BioVue AHG cards
[4] = head: cells modified with the peptide-lipid construct M22 (title: M28)

| Substance | score vs panel 2 T217 ([2]; construct 50 μg/ml) | score vs panel 4 T7202 ([2]; construct 50 μg/ml) | score vs panel 7 T8445 ([2]; construct 50 μg/ml) | score vs panel 8 T5896 ([2]; construct 50 μg/ml) | score vs panel 15 TAP2 ([2]; construct 50 μg/ml) | agglutination score, Panel Serum #7 (T8445) [2] | reactivity with Panel Serum #7 (T8445) [2] | agglutination score, false positive serum T21 [3] | agglutination score, false positive serum T28 [3] | agglutination score, false positive serum T78 [3] | agglutination score, false positive serum T92 [3] | agglutination score, false positive serum T55 [3] | further results |
| --- | --- | --- | --- | --- | --- | --- | --- | --- | --- | --- | --- | --- | --- |
| M22 peptide (SQTNDKHKRDC) |  |  |  |  |  |  |  |  |  |  |  |  | Post-neutralisation serology, PAC74 ([1]; cells modified with M22): 8; Post-neutralisation serology, PAC70 [1, 4]: 8; Post-neutralisation serology, TAP2 [1, 4]: 3 |
| M31: DOPE peptide-lipid construct: Mur peptide YPAHTANEVS, leader c, spacer CMG(2) (YPAHTANEVSC; also: DOPE peptide-lipid construct via leader Cys, spacer CMG(2)) | 0 | 10 | 8 | 0 | 0 | 8 | 8 | 10 | 12 | 8 | 12 |  |  |
| M19: DOPE peptide-lipid construct: Mur peptide PAHTANEV, leader c, spacer CMG(2) (PAHTANEVC; also: DOPE peptide-lipid construct via leader Cys, spacer CMG(2)) |  |  |  |  |  | 8 | 8 |  |  |  |  | 12 | score vs panel 2 T217 ([2]; construct 100 μg/ml): 0; score vs panel 3 T165 ([2]; construct 100 μg/ml): 10; score vs panel 4 T7202 ([2]; construct 100 μg/ml): 0; score vs panel 6 T6025 ([2]; construct 100 μg/ml): 8; score vs panel 7 T8445 ([2]; construct 100 μg/ml): 10; score vs panel 8 T5896 ([2]; construct 100 μg/ml): 3; score vs panel 9 MIII ([2]; construct 100 μg/ml): 0; score vs panel 10 Mia ([2]; construct 100 μg/ml): 0; score vs panel 11 Mur ([2]; construct 100 μg/ml): 0; score vs panel 12 Gam ([2]; construct 100 μg/ml): 0 |
| M26: DOPE peptide-lipid construct: Mur peptide YPAHTANEV, leader c, spacer CMG(2) (YPAHTANEVC; also: DOPE peptide-lipid construct via leader Cys, spacer CMG(2)) | 0 | 0 | 8 | 0 | 3 | 10 | 10 | 10 | 12 | 10 | 12 | 10 | score vs panel 3 T165 ([2]; construct 50 μg/ml): 10; score vs panel 6 T6025 ([2]; construct 50 μg/ml): 8; score vs panel 9 MIII ([2]; construct 50 μg/ml): 0; score vs panel 10 Mia ([2]; construct 50 μg/ml): 0; score vs panel 11 Mur ([2]; construct 50 μg/ml): 0; score vs panel 12 Gam ([2]; construct 50 μg/ml): 0; agglutination score, false positive serum T18 [3]: 5 |
| M29: DOPE peptide-lipid construct: Mur peptide PAHTANEVS, leader c, spacer CMG(2) (PAHTANEVSC; also: DOPE peptide-lipid construct via leader Cys, spacer CMG(2)) | 0 | 10 |  | 0 | 8 | 8 | 8 |  | 5 |  | 8 |  |  |
